# Patent US20240360146A1, “BRUTON'S TYROSINE KINASE AND MUTANT DEGRADER, COMPOSITION AND APPLICATION THEREOF” (HANGZHOU HEALZEN THERAPEUTICS CO., LTD., priority 2021, published 2024)
# Biological target: T1, BTK (Homo sapiens, UniProt Q06187)
# T1 construct: endogenous in cells; host or cells: Mino cells
# Assay: BTK degradation activity test in Mino cells
# Assay type: cell-based
# Settings: 16 h incubation, Western blot or Elisa
# Protocol: Mino cell line cells were seeded at 500,000 to 1,000,000 cells/well in a 6-well plate. The compounds were diluted to different concentrations and added to the plate, and after 16 h of incubation, cells were harvested. After lysing the cells, the total protein concentration in each well was determined using the BCA method. The amount of BTK was determined using Western blot or Elisa method. The amount of undegraded BTK protein at each drug concentration was compared with the amount of BTK protein in the blank control group to calculate the degradation rate. The degradation curve was drawn based on the degradation rate at each concentration, and the half degradation concentration (DC50) was calculated by fitting.
# T1 sequence (Q06187 whole entry): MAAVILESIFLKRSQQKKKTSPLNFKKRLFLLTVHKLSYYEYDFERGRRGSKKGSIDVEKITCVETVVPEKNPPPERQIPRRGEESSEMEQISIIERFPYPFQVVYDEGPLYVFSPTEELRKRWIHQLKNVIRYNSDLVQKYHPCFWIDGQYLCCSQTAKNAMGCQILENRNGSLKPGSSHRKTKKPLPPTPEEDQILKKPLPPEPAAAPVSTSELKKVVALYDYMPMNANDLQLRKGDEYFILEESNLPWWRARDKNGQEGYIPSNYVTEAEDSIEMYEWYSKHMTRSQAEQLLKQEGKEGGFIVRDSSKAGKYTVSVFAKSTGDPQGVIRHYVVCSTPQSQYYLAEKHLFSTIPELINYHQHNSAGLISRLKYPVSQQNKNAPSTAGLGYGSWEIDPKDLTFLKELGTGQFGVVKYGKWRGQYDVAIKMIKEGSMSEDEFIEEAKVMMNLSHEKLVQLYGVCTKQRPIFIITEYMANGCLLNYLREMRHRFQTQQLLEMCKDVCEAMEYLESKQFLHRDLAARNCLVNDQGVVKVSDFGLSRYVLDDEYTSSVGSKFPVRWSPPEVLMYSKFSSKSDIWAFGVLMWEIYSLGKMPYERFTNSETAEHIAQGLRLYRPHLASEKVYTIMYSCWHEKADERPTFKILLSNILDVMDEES
row,SMILES,DC50 [nM]
1,CC1(c2ccc(Nc3nc(N4CCCC(N5CCN(C6CCCC6)C5=O)C4)cnc3C(N)=O)cc2)CCN(C2CN(c3ccc(NC4CCC(=O)NC4=O)cn3)C2)CC1 (stereo not drawn) [Compound 021],< 1
2,Cn1c(=O)n(C2CCC(=O)NC2=O)c2cccc(N3CC(N4CCC(C)(c5ccc(Nc6nc(N7CCCC(N8CCN(C9CCCC9)C8=O)C7)cnc6C(N)=O)cc5)CC4)C3)c21 (stereo not drawn) [Compound 022],< 1
3,"CC1(c2ccc(Nc3nc(N4CCCC(N5CCN(C6CCCC6)C5=O)C4)cnc3C(N)=O)cc2)CCN(C2CN(c3ccc4c(=O)n(C5CCC(=O)NC5=O)ccc4c3)C2)CC1 (stereo not drawn) [Compound 023, 5-(3-(3-cyclopentyl-2-oxoimidazolin-1-yl)piperidin-1-yl)-3-((4-(1-(1-(2-(2,6-dioxopiperidin-3-yl)-1-oxo-1,2-dihydroisoquinolin-6-yl)azetidin-3-yl)-4-methylpiperidin-4-yl)phenyl)amino)pyrazin-2-carboxamide]",> 1
4,"Cn1c(=O)n(C2CCCN(c3cnc(C(N)=O)c(Nc4ccc(C5(C)CCN(C6CN(c7ccc8c(c7)C(=O)N(C7CCC(=O)NC7=O)C8=O)C6)CC5)cc4)n3)C2)c2ccccc21 (stereo not drawn) [Compound 025, 3-((4-(1-(1-(2-(2,6-dioxopiperidin-3-yl)-1,3-dioxoisoindol-5-yl)azetidin-3-yl)-4-methylpiperidin-4-yl)phenyl)amino)-5-(3-(3-methyl-2-oxo-2,3-dihydro-1H-benzo[d]imidazol-1-yl)piperidin-1-yl)pyrazin-2-carboxamide]",< 1
5,"CC1(c2ccc(Nc3nc(N4CCCC(n5cc6ccccn6c5=O)C4)cnc3C(N)=O)cc2)CCN(C2CN(c3ccc4c(c3)C(=O)N(C3CCC(=O)NC3=O)C4=O)C2)CC1 (stereo not drawn) [Compound 026, 3-((4-(1-(1-(2-(2,6-dioxopiperidin-3-yl)-1,3-dioxoisoindolin-5-yl)azetidin-3-yl)-4-methylpiperidin-4-yl)phenyl)amino)-5-(3-(3-oxoimidazo[1,5-a]pyridin-2(3H)-yl)piperidin-1-yl)pyrazin-2-carboxamide]",> 1

# Results, then the molecule that gave them:
row,DC50 [nM],SMILES
1,> 1,"NC(=O)c1ncc(N2CCCC(N3CCN(C4CCCC4)C3=O)C2)nc1Nc1ccc(C2CCN(C3CN(c4ccc5c(c4)C(=O)N(C4CCC(=O)NC4=O)C5=O)C3)CC2)cc1 (stereo not drawn) [Compound 027, 5-(3-(3-cyclopentyl-2-oxyimidazolin-1-yl)piperidin-1-yl)-3-((4-(1-(1-(2-(2,6-dioxopiperidin-3-yl)-1,3-dioxoisoindol-5-yl)azetidin-3-yl)piperidin-4-yl)phenyl)amino) pyrazin-2-carboxamide]"
2,> 1,"NC(=O)c1ncc(N2CCCC(N3CCN(C4CCCC4)C3=O)C2)nc1Nc1ccc(C(=O)C2CCN(CC3CCN(c4ccc5c(c4)C(=O)N(C4CCC(=O)NC4=O)C5=O)CC3)CC2)cc1 (stereo not drawn) [Compound 028, 5-(3-(3-cyclopentyl-2-oxoimidazolin-1-yl)piperidin-1-yl)-3-((4-(1-((1-(2-(2,6-dioxopiperidin-3-yl)-1,3-dioxoisoindolin-5-yl)piperidin-4-yl)methyl)piperidin-4-formyl)phenyl)amino)pyrazin-2-carboxamide]"
3,< 1,"NC(=O)c1ncc(N2CCCC(N3CCN(C4CCCC4)C3=O)C2)nc1Nc1ccc(N2CCC(C#CCN3CCN(c4ccc5c(c4)C(=O)N(C4CCC(=O)NC4=O)C5=O)CC3)CC2)cc1 (stereo not drawn) [Compound 029, 5-(3-(3-cyclopentyl-2-oxoimidazolin-1-yl)piperidin-1-yl)-3-((4-(4-(3-(4-(2-(2,6-dioxopiperidin-3-yl)-1,3-dioxoisoindolin-5-yl)piperazin-1-yl)propan-1-yne-1-yl)piperidin-1-yl)phenyl)amino)pyrazin-2-carboxamide]"
4,< 1,"NC(=O)c1ncc(N2CCCC(N3CCN(C4CCCC4)C3=O)C2)nc1Nc1ccc2c(c1)CCN(CC1CCN(c3ccc4c(c3)C(=O)N(C3CCC(=O)NC3=O)C4=O)CC1)C2 (stereo not drawn) [Compound 030, 5-(3-(3-cyclopentyl-2-oxoimidazolin-1-yl)piperidin-1-yl)-3-((2-((1-(2-(2,6-dioxopiperidin-3-yl)-1,3-dioxoisoindol-5-yl)piperidin-4-yl)methyl)-1,2,3,4-tetrahydroisoquinolin-6-yl)amino)pyrazin-2-carboxamide]"
